Test results as given in paper PMC4376724, “Differential Phenotypic and Functional Profiles of TcCA-2 -Specific Cytotoxic CD8^+ T Cells in the Asymptomatic versus Cardiac Phase in Chagasic Patients” (PLoS ONE, 2015).

Legend:
HLA-A*02:01 = HLA-A*02:01 (Homo sapiens, UniProt P04439, D140Y/D185E/D98H/E176V/E277Q/G131W/G231S/I119V/I121R/I166T/I218V/L300P/L318F/N151K/N90K/P208A/P217A/Q86G/Q94H/R138H/R169H/T345S); assay: HLA-A*02:01 binding assay (surface stabilization on TAP-deficient T2 cells); details: different peptide concentrations in duplicate, serum-free RPMI, overnight at room temperature, PE anti-HLA-A2 (BB7.2) flow cytometry, referred to 25 μM HB-ENV335-343 peptide
Description: TAP-deficient T2 cells were used for the HLA-A*02:01 binding assays and the K562-A2 cells for the HLA-A*02:01 restriction assay. The cells were cultured in complete RPMI medium supplemented with 10% of inactivated Fetal Calf Serum (iFCS), 2 mM glutamine, and 100 U/ml penicillin. K562-A2 cells, expressing the HLA-A*02:01 molecule were cultured in the presence of […] of G-418, as previously described. The T2 and K562-A2 cells were kindly provided by Dr. Pedro Romero (University of Lausanne) and by Dr Peter Ponsaerts (University of Antwerp, with the permission of Dr. Cedrik Britten from Johanes Gutenberg-University Mainz), respectively.
HLA-A*02:01 surface stabilization test was carried out as described in [42]. Briefly, TAP-deficient T2 cells were loaded with different concentrations of each peptide, in duplicate in serum-free RPMI medium, and incubated overnight at room temperature. Afterwards, the cells were stained with a PE-labeled HLA-A2-specific antibody (BB7.2 clone, BD biosciences) and analyzed by flow cytometry. The high-affinity HLA-A*02:01-binding peptide […] ([…]) was included as internal standard. Affinity data were calculated as the percentage of maximum complex stabilization, as described in [44]. The following equation was used: % of maximal stabilization = 100 x [(mean fluorescence with peptide)–(background mean fluorescence)]/[(mean fluorescence with 25 μM HBENV335-343 peptide)–(background mean fluorescence)]. Background value was obtained with cells incubated in the same conditions without peptide.
The percentage of maximal binding stabilization of these eight TcCA-2 peptides was evaluated using TAP-deficient T2 cells and different concentrations of each peptide. […] The maximal binding affinity is shown for each peptide in Table 1.

[1] = system: PBMCs from asymptomatic HLA-A*02:01 Chagas disease patients; assay: HLA-A*02:01 restriction assay: peptide-pulsed K562-A2 cells as APC, IFN-γ secretion by patient PBMC; type: cell-based, human; details: K562-A2 cells pulsed with 1 mM peptide 1 h, co-cultured 30 h with PBMC of asymptomatic (IND) patients; positive = IFN-γ at least two folds un-stimulated cells

Sequence	% maximal stabilization (HLA-A*02:01)	Chagas disease patient: patients with positive response in relation with the total number of patients per assay [1]
AIGGGKLPAL [TcCA-2_531-540]	20.89%	0/9
FANAPGVAQV [TcCA-2_452-461]	46.23%	0/10
SAFGNHASTV [TcCA-2_550-559]	19.07%	0/9
SILQNVHATL [TcCA-2_489-498]	36.02%	0/8
